Data reported in patent publication US20040120954A1, “Regulation of mt1-mmp activity” (priority 2000, published 2004).

Key:
MT1-MMP [1] = assay: Activation of proMMP-2 by MT1-MMP on the cell surface of transfected cells (gelatin zymography); type: cell-based, human; details: transfected COS1 cells, exogenous purified proMMP-2 (FIGS. 2, 20)
Description: Gelatin zymography was conducted using an SDS-polyacrylamide gel (PAGE) containing gelatin (0.8 mg/ml) (Itoh, Y. et al., J. Biol. Chem., 273: 24360-24367, 1998). The samples were mixed with a SDS-PAGE loading buffer without a reducing agent and subjected to electrophoretic analysis at room temperature. Enzyme activity was visualized as a negative staining area with Coomassie Brilliant Blue R-250.
The expression construct for FLAG epitope ([…]-tagged MT1-MMP (MT1-F) described in Itoh, Y. et al., J. Biol. Chem., 274: 34260-34266, 1999 was used as a template to generate cDNA for MT1Cat-F (A Ile^318-Gly^535) by the PCR extension method of Ho et al., (Ho, S. N. et al., Gene, 77: 51-59, 1989). The cDNA was subcloned into pSG5 (Stratagene, CA, USA). The PCR-generated fragments were confirmed by DNA sequencing. COS1 cells were transfected with the expression vector for MT1-MMP mutant; MT1-F or MT1Cat-F, or a vector alone (Mock). Expression vectors for each protein were transfected using FuGENE6™ (Roche Molecular Biochemicals) according to the manufacturer's instructions. COS1 cells were seeded in 6-well plates at 1.5×10^5/well at 16 hrs before the transfection was performed. The COS1 cells were maintained in a HAM F-12 medium or DMEM containing 10% fetal bovine serum in a humidified incubator at 37° C. At 48 hrs after the transfection, the cells were collected for use in the experiments. The cells were incubated in the presence of purified proMMP-2 in a serum-free medium (0.25 μg/ml) at 37° C. for 18 hrs. Cell lysates were tested for the expression of the mutants, while culture supernatants were tested for the activation of proMMP-2.
To investigate roles of dimer formation upon the activation of proMMP-2, MT1-F was introduced into COS1 cells together with MT1PEX-F. The co-introduced cells were reacted with exogenously added proMMP-2. Thus, COS1 cells were co-transfected with the MT1-F and MT1PEX-F at indicated DNA amount ratios. Next, purified proMMP-2 (0.25 μg/ml) in a serum-free medium was reacted with the resulting cells at 37° C. for 18 hrs. MMP-2 in the culture supernatant was analyzed by gelatin zymography, and the cell lysates were subjected to Western blotting analysis using a monoclonal anti-FLAG M2 antibody.
(§1) Next, to determine if MT1PEX-F affects the catalytic activity of MT1-MMP on the cell surface or not, tests for gelatin degrading activity and binding capacity to TIMP-2 were conducted using cells transfected in the same incubator. As shown in FIGS. 12 through 14, CHO-K1 cells were transfected with an expression vector for MT1-F, MT1-F/MT1PEX-F or MT1Cat-F, or a vector alone (Mock). The cells were then treated with trypsin, and separately seeded to: DQ™ gelatin-coated cover slips for testing the proteolytic activity (FIG. 13); and 24-well plates for TIMP-2 binding assay (FIG. 12) and for the activation of proMMP-2 (FIG. 14). Transfected cells on the DQ™ gelatin-coated cover slip as shown in FIG. 13 were incubated in a medium at 37° C. for 18 hrs, and the generated fluorescence was analyzed using confocal microscopy. Transfected cells on the 24-well plate as shown in FIG. 12 were incubated with 25 nM ^125I-labeled TIMP-2 in the presence or absence of BB-94 (50 μM) at 0° C. for 1 hr. MT1-MMP specific binding was calculated by subtracting the datum obtained in the presence of BB-94 (50 μM) from each datum derived from the corresponding experiments. […] DQ™ gelatin is a fluorescence-quenched gelatin, which fluoresces upon proteolytic cleavage. […]

MT1-F = molecular target: T1, MT1-F (Homo sapiens, UniProt P50281); assay: Co-immunoprecipitation with MT1-F using anti-FLAG M2 beads (COS1 cells); type: binding; details: co-expressed in COS1 cells (FIG. 18)
T1 construct: expressed in transfected cells
Description: Transfected COS1 cells were lysed in a RIPA buffer (50 mM Tris-HCl, pH 7.5; 150 mM NaCl; 1% Triton-X100; 1% sodium deoxycolate; 0.1% SDS; 1 mM EDTA; 1 mM PMSF; 10 μM E-64; 0.02% NaN3) at room temperature for 1 hr. Cell lysates were centrifuged at 15,000 rpm in Eppendorf tubes, and the supernatant was reacted with anti-FLAG M2 antibody-conjugated beads (Sigma) at 4° C. for 1 hr. The beads were washed three times with a RIPA buffer and once with Tris-buffered saline (pH 7.5) (TBS). Bound proteins were eluted by the FLAG peptide ([…] 200 μg/ml) (Sigma) in TBS, and subjected to Western blot analysis using a monoclonal mouse anti-FLAG epitope M2 antibody (Sigma), a monoclonal mouse anti-c-Myc antibody (Ab-1) (Oncogene, MA, USA; 1 μg/ml), a rabbit anti-(human MT1Cat) antibody (1:2000), or a monoclonal mouse anti-human MT1PEX antibody (222-1D8) (0.5 μg/ml).
The activation of proMMP-2 by MT1-MMP on the cell surface requires the ternary complex formation of proMMP-2, TIMP-2 and MT1-MMP, and also the presence of TIMP-2-free MT1-MMP near the ternary complex. If TIMP-2-free MT1-MMP and the ternary complex are far apart, the activation should not occur. We thus hypothesized that MT1-MMP would form a homophilic complex on the cell surface to arrange the effective activation complex for MMP-2. […]

MT1-MMP [2] = assay: In situ gelatin degrading assay (DQ gelatin or Alexa488-conjugated gelatin); type: cell-based, human; details: DQ gelatin; CHO-K1 (FIG. 13) or COS1 cells (FIG. 22)
Description: Two different in situ gelatin degrading assays were performed. One used DQ™ gelatin (Molecular Probes, Inc., OR, USA). DQ gelatin is a fluorescence-quenched gelatin substrate, and will fluoresce upon proteolytic cleavage. Glass cover slips were coated with 5% DQ™ gelatin in a 10 mg/ml unlabeled gelatin solution, and dried. Transfected cells were cultured on the cover slip in a humidified chamber for 16 hrs. The cells were then fixed with 3% para-formaldehyde and the degraded areas were visualized as those showing fluorescence.
The other assay used Alexa488-conjugated gelatin made with an Alexa488-labeling kit (Molecular Probes). The bottom surfaces of 4-well chamber slides (Nunc) were coated with Alexa488-conjugated gelatin according to the method of Yana, I. and Weiss, S. J., Mol. Biol. Cell, 11, 2387-2401, 2000. Transfected COS1 cells were cultured in the chamber slides for 16 hrs in a humidified culture incubator. The cells were then fixed with 3% para-formaldehyde in PBS, and the degraded area was analyzed under a fluorescence microscope. The degraded area was visualized as a dark, non-fluorescent area. Fluorescence images were analyzed using confocal microscopy (BioRad).
as §1, with “experiments. Identically transfected cells on the 24-well plate as shown in FIG. 14 were subjected to the reaction with purified proMMP-2 in a serum-free medium at 37° C. for 18 hrs. The cells and culture supernatants were respectively subjected to Western blotting analysis using a monoclonal anti-FLAG M2 antibody, and gelatin zymography analysis.” for “experiments.”

MT1Cat: MT1-MMP lacking the PEX domain (untagged)
activation of proMMP-2 by cells expressing the mutant (MT1-MMP [1]): cannot activate proMMP-2
co-immunoprecipitation with MT1-F (MT1-F): not MT1Cat was co-immunoprecipitated with MT1-F
gelatin degrading (proteolytic) activity of cells expressing the mutant (MT1-MMP [2]): retains its proteolytic activity
